This experiment deals with inflammatory acne of the face. Put plainly: Clinical trial in patients with inflammatory acne of the face. The class given is in vivo, human patients. To be noted: 10 patients 14 to 23 years old; benzoyl peroxide 4 cases, erythromycin 3 cases, nicotinamide gel 3 cases. From the text:
The composition used is a gel in accordance with that whose composition is given in example 2.

The structures appear in SMILES notation.

For the molecule `CC[C@H]1OC(=O)[C@H](C)[C@@H](O[C@H]2C[C@@](C)(OC)[C@@H](O)[C@H](C)O2)[C@H](C)[C@@H](O[C@@H]2O[C@H](C)C[C@H](N(C)C)[C@H]2O)[C@](C)(O)C[C@@H](C)C(=O)[C@H](C)[C@@H](O)[C@]1(C)O` [erythromycin], the “improvement of acne with conventional treatment” value is “no notable improvement”. Regarding `O=C(OOC(=O)c1ccccc1)c1ccccc1` [benzoyl peroxide], the “improvement of acne with conventional treatment” value is recorded as “no notable improvement”.

The record behind these values is patent publication US20040170591A1, “Dermatological composition comprising nicotinic acid or an amide, and a sphingoid base” (priority 2001, published 2004).
